Measured values published in PMC5983452 (PLoS ONE, 2018).
Counter-ions that a name gives are not always drawn. Like-named read-outs stand apart in the source and are kept apart here.

System: panel of 240 cancer cell lines
Experiment: Proliferation in a broad panel of 240 cancer cell lines, 2D culture (Eurofins Panlabs Oncopanel)
Assay type: cell-based
Conditions: read-out: IC50
Description: Cell lines used in these experiments were obtained from the following sources and were cultured according to conditions specified by the respective cell banks. […] The cell lines listed above were tested for mycoplasma and were negative. Cells were authenticated by STR method or vendor protocols. All 313 cell lines in the CRIPSR pooled screen were purchased from commercial vendors and were STR authenticated and mycoplasma negative. A broad panel of cancer cell lines was screened in the Eurofins Oncopanel. All cells in this panel were mycoplasma negative and STR verified.

NC1CCC(S(=O)(=O)N2C3CCC2CC(NC(=O)c2cc(C4CC4)on2)C3)CC1 [EPZ028862, N-((1R,3R,5S)-8-((1r,4R)-4-aminocyclohexylsulfonyl)-8-aza-bicyclo[3.2.1]octan-3-yl)-5-cyclopropylisoxazole-3-carboxamide hydrochloride] was tested, and the IC50 (5637, Bladder) was over 25 µM, the IC50 (A7, Skin) was over 25 µM and the IC50 (AGS, Colon/GI) was over 25 µM. The IC50 (BC-1, Haematopoietic and lymphoid) was over 25 µM, the IC50 (BM-1604, BM-1604, Prostate) was over 25 µM and the IC50 (C32, Skin) was over 25 µM. For the same molecule, the IC50 (C32TG, Skin) was over 25 µM, the IC50 (C-4 I, Female GU) was over 25 µM and the IC50 (CEM/C1, CEM-C1, Haematopoietic and lymphoid) was over 25 µM. The IC50 (CML-T1, CML-T1, Haematopoietic and lymphoid) was over 25 µM, the IC50 (DB, Haematopoietic and lymphoid) was over 25 µM and the IC50 (DK-MG, CNS) was over 25 µM. It also gave an IC50 (EB-3, Haematopoietic and lymphoid) of over 25 µM, an IC50 (EM-2, Haematopoietic and lymphoid) of over 25 µM and an IC50 (ES-2, Female GU) of over 25 µM. For the same molecule, the IC50 (H4, CNS) was over 25 µM, the IC50 (HLE, Liver) was over 25 µM and the IC50 (HLF, Liver) was over 25 µM. It also gave an IC50 (HOS, Soft Tissue) of over 25 µM, an IC50 (HT, Haematopoietic and lymphoid) of over 25 µM and an IC50 (HT-3, Female GU) of over 25 µM. For the same molecule, the IC50 (HUH-6-clone5, HUH-6 Clone 5, Liver) was over 25 µM, the IC50 (Homo sapiens, 22Rv1, 22Rv1, Prostate) was over 25 µM and the IC50 (Homo sapiens, 639-V, Bladder) was over 25 µM. It also gave an IC50 (Homo sapiens, 647-V, Bladder) of over 25 µM, an IC50 (Homo sapiens, 769-P, Kidney) of over 25 µM and an IC50 (Homo sapiens, 786-0, 786-O, Kidney) of over 25 µM. The IC50 (Homo sapiens, A101D, Skin) was over 25 µM, the IC50 (Homo sapiens, A 172, A172, CNS) was over 25 µM and the IC50 (Homo sapiens, A204, A204, Soft Tissue) was over 25 µM. It also gave an IC50 (Homo sapiens, A498, A498, Kidney) of over 25 µM, an IC50 (Homo sapiens, A549, A549, Lung) of over 25 µM and an IC50 (Homo sapiens, A673, A-673, Soft Tissue) of over 25 µM. For the same molecule, the IC50 (Homo sapiens, A-375, A375, Skin) was over 25 µM, the IC50 (Homo sapiens, A-427, A427, Lung) was over 25 µM and the IC50 (Homo sapiens, A-431, A431, Skin) was over 25 µM. The IC50 (Homo sapiens, ACHN, Kidney) was over 25 µM, the IC50 (Homo sapiens, AN3-CA, AN3 CA, Female GU) was over 25 µM and the IC50 (Homo sapiens, ARH-77, ARH-77, Haematopoietic and lymphoid) was over 25 µM. It also gave an IC50 (Homo sapiens, ASPC1, AsPC-1, Pancreas) of over 25 µM, an IC50 (Homo sapiens, AU565, AU565, Breast) of over 25 µM and an IC50 (Homo sapiens, BE(2)-C, BE(2)C, CNS) of over 25 µM. It also gave an IC50 (Homo sapiens, BFTC-905, BFTC-905, Bladder) of over 25 µM, an IC50 (Homo sapiens, BHT-101, BHT-101, Endocrine) of over 25 µM and an IC50 (Homo sapiens, BPH-1, BPH1, Prostate) of over 25 µM. It also gave an IC50 (Homo sapiens, BT-20, BT20, Breast) of over 25 µM, an IC50 (Homo sapiens, BT-474, BT474, Breast) of over 25 µM and an IC50 (Homo sapiens, BT-549, BT-549, Breast) of over 25 µM. The IC50 (Homo sapiens, BV-173, BV-173, Haematopoietic and lymphoid) was over 25 µM, the IC50 (Homo sapiens, BXPC-3, BxPC-3, Pancreas) was over 25 µM and the IC50 (Homo sapiens, BeWo, Female GU) was over 25 µM. For the same molecule, the IC50 (Homo sapiens, C-4-II, C-4 II, Female GU) was over 25 µM, the IC50 (Homo sapiens, C-33-A, C-33A, Female GU) was over 25 µM and the IC50 (Homo sapiens, CAKI-1, Caki-1, Kidney) was over 25 µM. The IC50 (Homo sapiens, CAKI-2, Caki-2, Kidney) was over 25 µM, the IC50 (Homo sapiens, CAL-27, Cal 27, Head and Neck) was over 25 µM and the IC50 (Homo sapiens, CAL-62, CAL-62, Endocrine) was over 25 µM. For the same molecule, the IC50 (Homo sapiens, CAMA-1, CAMA-1, Breast) was over 25 µM, the IC50 (Homo sapiens, CAPAN-1, Capan-1, Pancreas) was over 25 µM and the IC50 (Homo sapiens, CCF-STTG1, CCF-STTG1, CNS) was over 25 µM. The IC50 (Homo sapiens, CCRF-CEM, CCRFCEM, Haematopoietic and lymphoid) was over 25 µM, the IC50 (Homo sapiens, CFPAC-1, CFPAC-1, Pancreas) was over 25 µM and the IC50 (Homo sapiens, CGTH-W-1, CGTH-W-1, Endocrine) was over 25 µM. It also gave an IC50 (Homo sapiens, CHL-1, CHL-1, Skin) of over 25 µM, an IC50 (Homo sapiens, CHP-212, CHP-212, CNS) of over 25 µM and an IC50 (Homo sapiens, COLO 201, Colo 201, Colon/GI) of over 25 µM. For the same molecule, the IC50 (Homo sapiens, COLO 205, Colo 205, Colon/GI) was over 25 µM, the IC50 (Homo sapiens, COLO 320DM, Colon/GI) was over 25 µM and the IC50 (Homo sapiens, COLO-320-HSR, Colo 320 HSR, Colon/GI) was over 25 µM. For the same molecule, the IC50 (Homo sapiens, COLO-829, COLO 829, Skin) was over 25 µM, the IC50 (Homo sapiens, COR-L23, COR-L23, Lung) was over 25 µM and the IC50 (Homo sapiens, COR-L105, COR-L105, Lung) was over 25 µM. For the same molecule, the IC50 (Homo sapiens, CRO-AP2, CRO-AP2, Haematopoietic and lymphoid) was over 25 µM, the IC50 (Homo sapiens, Calu-1, Calu1, Lung) was over 25 µM and the IC50 (Homo sapiens, Calu-6, Calu6, Lung) was over 25 µM. For the same molecule, the IC50 (Homo sapiens, Caov-3, CaOV3, Female GU) was over 25 µM, the IC50 (Homo sapiens, Capan-2, Capan-2, Pancreas) was over 25 µM and the IC50 (Homo sapiens, ChaGo-K-1, ChaGoK1, Lung) was over 25 µM. For the same molecule, the IC50 (Homo sapiens, D283 Med, CNS) was over 25 µM, the IC50 (Homo sapiens, DBTRG-05MG, CNS) was over 25 µM and the IC50 (Homo sapiens, DLD-1, DLD-1, Colon/GI) was over 25 µM. For the same molecule, the IC50 (Homo sapiens, DMS-53, DMS53, Lung) was over 25 µM, the IC50 (Homo sapiens, DMS-114, DMS114, Lung) was over 25 µM and the IC50 (Homo sapiens, DMS-273, DMS273, Lung) was over 25 µM. It also gave an IC50 (Homo sapiens, DOHH-2, DOHH-2, Haematopoietic and lymphoid) of 8.66 µM, an IC50 (Homo sapiens, DU-145, DU145, Prostate) of over 25 µM and an IC50 (Homo sapiens, Daoy, CNS) of over 25 µM. The IC50 (Homo sapiens, Daudi, Haematopoietic and lymphoid) was over 25 µM, the IC50 (Homo sapiens, Detroit 562, Detroit 562, Head and Neck) was over 25 µM and the IC50 (Homo sapiens, DoTc2-4510, DoTc2 4510, Female GU) was over 25 µM. For the same molecule, the IC50 (Homo sapiens, EFM-19, EFM-19, Breast) was over 25 µM, the IC50 (Homo sapiens, FaDu, Head and Neck) was over 25 µM and the IC50 (Homo sapiens, G-401, G-401, Kidney) was over 25 µM. For the same molecule, the IC50 (Homo sapiens, G-402, G-402, Kidney) was over 25 µM, the IC50 (Homo sapiens, HCT-8, HCT-8, Colon/GI) was over 25 µM and the IC50 (Homo sapiens, HCT-15, HCT-15, Colon/GI) was over 25 µM. It also gave an IC50 (Homo sapiens, HCT-116, HCT-116, Colon/GI) of over 25 µM, an IC50 (Homo sapiens, HEC-1-A, Female GU) of over 25 µM and an IC50 (Homo sapiens, HEL 92.1.7, HEL-92-1-7, Haematopoietic and lymphoid) of over 25 µM. The IC50 (Homo sapiens, HMCB, Skin) was over 25 µM, the IC50 (Homo sapiens, HPAF-II, Pancreas) was over 25 µM and the IC50 (Homo sapiens, HT1197, HT-1197, Bladder) was over 25 µM. The IC50 (Homo sapiens, HT-29, HT-29, Colon/GI) was over 25 µM, the IC50 (Homo sapiens, HT-1080, HT-1080, Soft Tissue) was over 25 µM and the IC50 (Homo sapiens, HT-1376, HT1376, Bladder) was over 25 µM. The IC50 (Homo sapiens, HeLa, Female GU) was over 25 µM, the IC50 (Homo sapiens, HepG2, HepG2, Liver) was over 25 µM and the IC50 (Homo sapiens, Hs 294T, Skin) was over 25 µM. For the same molecule, the IC50 (Homo sapiens, Hs 695T, Skin) was over 25 µM, the IC50 (Homo sapiens, Hs746T, HS 746T, Colon/GI) was over 25 µM and the IC50 (Homo sapiens, Hs-578T, Hs 578T, Breast) was over 25 µM. The IC50 (Homo sapiens, HuCCT-1, HuCCT1, Liver) was over 25 µM, the IC50 (Homo sapiens, HuP-T4, HuP-T4, Pancreas) was over 25 µM and the IC50 (Homo sapiens, J-RT3-T3-5, J-RT3-T3-5, Haematopoietic and lymphoid) was over 25 µM. For the same molecule, the IC50 (Homo sapiens, JEG-3, JEG-3, Female GU) was over 25 µM, the IC50 (Homo sapiens, Jurkat, Haematopoietic and lymphoid) was over 25 µM and the IC50 (Homo sapiens, K562, K562, Haematopoietic and lymphoid) was over 25 µM. It also gave an IC50 (Homo sapiens, KATO III, Colon/GI) of over 25 µM, an IC50 (Homo sapiens, L-428, L-428, Haematopoietic and lymphoid) of over 25 µM and an IC50 (Homo sapiens, LNCaP, Prostate) of over 25 µM.
